Assay results as given in ChEMBL document CHEMBL3259645, “Design and synthesis of spirocyclic compounds as HCV replication inhibitors by targeting viral NS4B protein” (Bioorg Med Chem Lett, 2014).
Converted amounts (≈) assume the structure as drawn.

How the values were obtained:
[1] = tested on: Hepatitis C virus; assay: Antiviral activity against Hepatitis C virus genotype 1b infected in human HuH7 cells assessed as inhibition of replicon replication after 48 hrs by luciferase reporter gene assay; type: functional, cell-based, Hepacivirus hominis; conditions: Huh-7, 48 h
[2] = tested on: Hepatitis C virus; assay: Antiviral activity against Hepatitis C virus genotype 1a infected in human HuH7 cells assessed as inhibition of replicon replication after 48 hrs by luciferase reporter gene assay; type: functional, cell-based, Hepacivirus hominis; conditions: subtype 1a, Huh-7, 48 h
[3] = Cytotoxicity against human HuH7 cells infected with Hepatitis C virus genotype 1b; type: cell-based, Huh-7
[4] = Half life in rat hepatocytes; type: ADME, cell-based, Hepatocyte
[5] = Volume of distribution at steady state in rat at 1 mg/kg, iv and 5 mg/kg, po; type: ADME, organism-based; conditions: in vivo, read-out: Vdss
[6] = tested on: Hepatitis C virus; assay: Antiviral activity against Hepatitis C virus genotype 1b harboring NS4B V105M mutant infected in human HuH7 cells assessed as inhibition of replicon replication after 48 hrs by luciferase reporter gene assay; type: functional, cell-based, Hepacivirus hominis; conditions: Huh-7, 48 h
[7] = Kinetic solubility of the compound at pH 7.4; type: physicochemical; conditions: buffer, read-out: Kinetic_solubility
[8] = tested on: Hepatitis C virus; assay: Ratio of EC50 for Hepatitis C virus genotype 1b harboring NS4B H94N mutant infected in human HuH7 cells to EC50 for wild type Hepatitis C virus genotype 1b infected in human HuH7 cells; type: functional, Hepacivirus hominis, Huh-7
[9] = Displacement of biotinylated anti-His antibody from C-terminal 6X His-tagged Hepatitis C virus genotype 1b NS4B expressed in baculovirus-infected Sf9 cells by microplate assay; parameters: species or system Hepatitis C virus subtype 1b
[10] = AUC (0 to 24 hrs) in rat at 5 mg/kg, po; type: ADME, organism-based; parameters: time < 24 hr, dose 5 mg/kg, route oral; conditions: plasma
[11] = Cmax in rat at 5 mg/kg, po; type: ADME, organism-based; parameters: dose 5 mg/kg, route oral; conditions: in vivo
[12] = tested on: Hepatitis C virus; assay: Ratio of EC50 for Hepatitis C virus genotype 1b harboring NS4B V105M mutant infected in human HuH7 cells to EC50 for wild type Hepatitis C virus genotype 1b infected in human HuH7 cells; type: functional, Hepacivirus hominis, Huh-7
[13] = Half life in human hepatocytes; type: ADME, cell-based, Hepatocyte
[14] = tested on: Hepatitis C virus; assay: Antiviral activity against Hepatitis C virus genotype 2a; type: functional, Hepacivirus hominis
[15] = Oral bioavailability in rat at 5 mg/kg; type: ADME, organism-based; conditions: in vivo
[16] = tested on: Hepatitis C virus; assay: Antiviral activity against Hepatitis C virus genotype 1b harboring NS4B H94N mutant infected in human HuH7 cells assessed as inhibition of replicon replication after 48 hrs by luciferase reporter gene assay; type: functional, cell-based, Hepacivirus hominis; conditions: Huh-7, 48 h
[17] = Clearance in rat at 1 mg/kg, iv; type: ADME, organism-based; parameters: dose 1 mg/kg, route intravenous; conditions: in vivo

O=C(c1nn2c(C(F)(F)F)cc(C3CC3)cc2c1Cl)N1CCC2(OCC3(CC3)CO2)C(O)C1 (stereo not given)
EC50 [1]: 2.2 nM
EC50 [2]: 4.3 nM
CC50 [3]: > 50000 nM

O=C(c1nc2c(C(F)(F)F)cc(Br)cn2c1Cl)N1CCC(N2CCOC2=O)CC1
EC50 [1]: 45.5 nM
EC50 [2]: 31.4 nM

O=C(c1nn2c(C(F)(F)F)cc(C3CC3)cc2c1Cl)N1CCCC2(C1)OCCCO2
EC50 [1]: > 500 nM
EC50 [2]: > 500 nM
CC50 [3]: > 50000 nM

O=C(c1nn2c(C(F)(F)F)cc(C3CC3)cc2c1Cl)N1CCC2(CC1)OCCO2
EC50 [1]: 161 nM
EC50 [2]: 299 nM
CC50 [3]: > 50000 nM

O=C(c1nn2c(C(F)(F)F)cc(C3CC3)cc2c1Cl)N1CCC2(CC1)OCCCO2
EC50 [1]: 6.1 nM
EC50 [2]: 33.8 nM
CC50 [3]: > 50000 nM

O=C(c1nn2c(C(F)(F)F)cc(C3CC3)cc2c1Cl)N1CCC2(CC1)OCCCCO2
EC50 [1]: 8 nM
EC50 [2]: 46.3 nM
CC50 [3]: > 25000 nM

CC1COC2(CCN(C(=O)c3nn4c(C(F)(F)F)cc(C5CC5)cc4c3Cl)CC2)OC1
EC50 [1]: 1.2 nM
EC50 [2]: 7.4 nM
CC50 [3]: > 50000 nM

CC1(C)COC2(CCN(C(=O)c3nn4c(C(F)(F)F)cc(C5CC5)cc4c3Cl)CC2)OC1
EC50 [1]: 9.8 nM
EC50 [2]: 23.8 nM
CC50 [3]: > 25000 nM

O=C(c1nn2c(C(F)(F)F)cc(C3CC3)cc2c1Cl)N1CCC2(CC1)OCC(c1ccccc1)CO2
EC50 [1]: 209 nM
EC50 [2]: 42.2 nM
CC50 [3]: > 50000 nM

O=C(c1nn2c(C(F)(F)F)cc(C3CC3)cc2c1Cl)N1CCC2(CC1)OCC(O)CO2
EC50 [1]: 13.8 nM
EC50 [2]: 19.5 nM
CC50 [3]: > 50000 nM

O=C1COC2(CCN(C(=O)c3nn4c(C(F)(F)F)cc(C5CC5)cc4c3Cl)CC2)OC1
EC50 [1]: 19.1 nM
EC50 [2]: 18 nM
CC50 [3]: > 50000 nM

O=C(c1nn2c(C(F)(F)F)cc(C3CC3)cc2c1Cl)N1CCC2(CC1)OCC1(CC1)CO2
EC50 [1]: 4.1 nM
half-life [4]: < 0.25 h
Vd [5]: 4.5 L/kg
EC50 [6]: 67.6 nM
solubility kinetic [7]: 105 µg/mL (≈ 223 µM)
Ratio EC50 [8]: 5.9
IC50 [9]: 32 nM
AUC(0-t) at 24 h [10]: 693 ng·h/mL
EC50 [2]: 9 nM
Cmax [11]: 254 ng/mL
Ratio EC50 [12]: 16.5
half-life [13]: 0.5 h
CC50 [3]: > 50000 nM
EC50 [14]: 6840 nM
bioavailability [15]: 29%
EC50 [16]: 24.3 nM
clearance [17]: 37.8 mL/min/kg

O=C(c1nn2c(C(F)(F)F)cc(C3CC3)cc2c1Cl)N1CCC2(CC1)OCC1(CCC1)CO2
EC50 [1]: 7.6 nM
EC50 [2]: 5.1 nM
CC50 [3]: > 50000 nM

O=C(c1nn2c(C(F)(F)F)cc(C3CC3)cc2c1Cl)N1CCC2(CC1)OCC1(CO2)CC(O)C1
EC50 [1]: 14.2 nM
EC50 [2]: 2.2 nM
CC50 [3]: > 50000 nM

O=C(c1nn2c(C(F)(F)F)cc(C3CC3)cc2c1Cl)N1CCC2(CC1)OCC1(COC1)CO2
EC50 [1]: 3.2 nM
EC50 [2]: 14.4 nM
CC50 [3]: > 50000 nM

O=C(c1nn2c(C(F)(F)F)cc(C3CC3)cc2c1Cl)N1CCC2(OCC3(CC3)CO2)[C@@H](O)C1
EC50 [1]: 8.2 nM
EC50 [2]: 32.5 nM
CC50 [3]: > 50000 nM

O=C(c1nn2c(C(F)(F)F)cc(C3CC3)cc2c1Cl)N1CCC2(OCC3(CC3)CO2)[C@H](O)C1
EC50 [1]: 1.2 nM
half-life [4]: 0.467 h
Vd [5]: 0.8 L/kg
EC50 [6]: 172 nM
solubility kinetic [7]: 323 µg/mL (≈ 665 µM)
Ratio EC50 [8]: 29.9
IC50 [9]: 10.2 nM
AUC(0-t) at 24 h [10]: 2790 ng·h/mL
EC50 [2]: 1.5 nM
Cmax [11]: 1130 ng/mL
Ratio EC50 [12]: 143
half-life [13]: 0.833 h
CC50 [3]: > 50000 nM
EC50 [14]: 11300 nM
bioavailability [15]: > 100%
EC50 [16]: 35.9 nM
clearance [17]: 35.7 mL/min/kg

O=C(c1nn2c(C(F)(F)F)cc(C3CC3)cc2c1Cl)N1CCC2(OCC3(CC3)CO2)C(=O)C1
EC50 [1]: 3.8 nM
EC50 [2]: 5.1 nM
CC50 [3]: > 50000 nM

O=C1NCC2(CCN(C(=O)c3nn4c(C(F)(F)F)cc(C5CC5)cc4c3Cl)CC2)O1
EC50 [1]: 55.4 nM
EC50 [2]: 166 nM
CC50 [3]: > 50000 nM

CN1CC2(CCN(C(=O)c3nn4c(C(F)(F)F)cc(C5CC5)cc4c3Cl)CC2)OC1=O
EC50 [1]: 3.4 nM
half-life [4]: 1.33 h
Vd [5]: 2.1 L/kg
EC50 [6]: 20.4 nM
solubility kinetic [7]: 267 µg/mL (≈ 584 µM)
Ratio EC50 [8]: 12.5
IC50 [9]: 23.4 nM
AUC(0-t) at 24 h [10]: 1060 ng·h/mL
EC50 [2]: 2 nM
Cmax [11]: 269 ng/mL
Ratio EC50 [12]: 6
half-life [13]: 1.1 h
CC50 [3]: > 50000 nM
EC50 [14]: 6840 nM
bioavailability [15]: 72%
EC50 [16]: 42.7 nM
clearance [17]: 56.5 mL/min/kg

CCN1CC2(CCN(C(=O)c3nn4c(C(F)(F)F)cc(C5CC5)cc4c3Cl)CC2)OC1=O
EC50 [1]: 5.9 nM
EC50 [2]: 20.6 nM
CC50 [3]: > 50000 nM

O=C1OC2(CCN(C(=O)c3nn4c(C(F)(F)F)cc(C5CC5)cc4c3Cl)CC2)CN1CCO
EC50 [1]: 78.5 nM
EC50 [2]: 23.2 nM
CC50 [3]: > 50000 nM

O=C1OC2(CCN(C(=O)c3nn4c(C(F)(F)F)cc(C5CC5)cc4c3Cl)CC2)CN1CC1CC1
EC50 [1]: 23.4 nM
EC50 [2]: 18.1 nM
CC50 [3]: > 50000 nM

O=C1OC2(CCN(C(=O)c3nn4c(C(F)(F)F)cc(C5CC5)cc4c3Cl)CC2)CN1Cc1ccccc1
EC50 [1]: 457 nM
EC50 [2]: 427 nM
CC50 [3]: > 50000 nM

O=C1CC2(CCN(C(=O)c3nn4c(C(F)(F)F)cc(C5CC5)cc4c3Cl)CC2)CN1
EC50 [1]: 1580 nM
EC50 [2]: 441 nM
CC50 [3]: > 50000 nM

CN1CC2(CCN(C(=O)c3nn4c(C(F)(F)F)cc(C5CC5)cc4c3Cl)CC2)CC1=O
EC50 [1]: 69.2 nM
EC50 [2]: 184 nM
CC50 [3]: > 50000 nM

CN1C[C@@]2(CCN(C(=O)c3nn4c(C(F)(F)F)cc(C5CC5)cc4c3Cl)C[C@H]2O)OC1=O
EC50 [1]: 7 nM
EC50 [2]: 14.5 nM
CC50 [3]: > 50000 nM

CN1C[C@]2(CCN(C(=O)c3nn4c(C(F)(F)F)cc(C5CC5)cc4c3Cl)C[C@@H]2O)OC1=O
EC50 [1]: 3990 nM
EC50 [2]: 3560 nM
CC50 [3]: > 50000 nM

CN1C[C@@]2(CCN(C(=O)c3nn4c(C(F)(F)F)cc(C5CC5)cc4c3Cl)C[C@@H]2O)OC1=O
EC50 [1]: 6.1 nM
half-life [4]: 2.2 h
Vd [5]: 2 L/kg
EC50 [6]: 1130 nM
solubility kinetic [7]: 310 µg/mL (≈ 656 µM)
Ratio EC50 [8]: 27.3
IC50 [9]: 30.4 nM
AUC(0-t) at 24 h [10]: 1530 ng·h/mL
EC50 [2]: 10.9 nM
Cmax [11]: 344 ng/mL
Ratio EC50 [12]: 185
half-life [13]: 2.05 h
CC50 [3]: > 50000 nM
EC50 [14]: 38000 nM
bioavailability [15]: 49%
EC50 [16]: 175 nM
clearance [17]: 25.7 mL/min/kg

CN1C[C@]2(CCN(C(=O)c3nn4c(C(F)(F)F)cc(C5CC5)cc4c3Cl)C[C@H]2O)OC1=O
EC50 [1]: 7.2 nM
EC50 [2]: 16.7 nM
CC50 [3]: > 50000 nM
